Laboratory results reported in US11390621B2, “Chiral indole compounds and their use” (ARIAGEN, INC., priority 2019, dated 2022).
Where “and” joins values, the source holds several entries; their conditions need not be identical. Identical values can stand only once. Like-named read-outs stand apart in the source and are kept apart here.

Key:
EMT-6 cancer cells = assay: EMT-6 subcutaneous syngeneic mouse tumor model (Example 48); type: in vivo, BALB/C mice; conditions: 40 mg/kg, IP
Procedure: This example describes in vivo studies that evaluated the anti-cancer efficacy of ARI-143, ARI-164, ARI-165, and ARI-186 in syngeneic mouse tumor models. Mice implanted subcutaneously with EMT-6 or Pan02 cancer cells were treated with ARI-143, ARI-164, ARI-165, ARI-186, or vehicle controls, as described below.
A monolayer culture of tumor cells was maintained in vitro in DMEM or RPMI1640 medium supplemented with 10% fetal bovine serum at 37° C. in an atmosphere of 5% CO2. Cells in exponential growth phase were harvested and quantitated by cell counter before tumor inoculation. The cell lines used are described in the table below.
Two subcutaneous syngeneic mouse tumor models were generated by innoculating female BALB/C or C57BL/6 mice with cancer cells at their right lower or front flank as detailed in the table below:
Each mouse was inoculated subcutaneously with tumor cells in 0.1 mL of PBS. Treatments were started when the mean tumor size reached approximately 80-120 mm^3 (around 100 mm^3). The administration of the test compounds and the animal number in each study group are shown in the study design. The date of tumor cell inoculation was denoted as day 0.
ARI-143, ARI-164, and ARI-165 were dissolved in DMSO at the final concentration of 26.7 mg/ml and stored at room temperature. In Pan02 studies of ARI-164 and ARI-186, both compounds were dissolved in 100% PEG400.
Randomization of animals was started when the mean tumor size reached approximately 90 mm^3 to form the mouse study groups. The randomization was-performed based on “Matched distribution” method using the multi-task method (StudyDirector™ software, version 3.1.399.19)/randomized block design. The mouse groups (ten in each group) were treated with vehicle (DMSO or PEG400) or the test compounds at a dose of 26-80 mg/kg by intraperitoneal (i.p.). injection, QD for 28 days or longer.
After tumor cell inoculation, the mice were checked daily for morbidity and mortality. During routine monitoring, the mice were checked for tumor growth and any effects of the treatment on behavior such as mobility, food and water consumption, body weight gain/loss (body weights were measured twice per week after randomization), eye/hair matting, and any other abnormalities. Mortality and observed clinical signs were recorded for individual mice in detail.
Tumor volumes were measured twice per week in two dimensions using a caliper, and the volume was expressed in mm^3 using the formula: V=(L×W×W)/2, where V is tumor volume, L is tumor length (the longest tumor dimension) and W is tumor width (the longest tumor dimension perpendicular to L). Dosing as well as tumor and body weight measurements was conducted in a Laminar Flow Cabinet. The body weights and tumor volumes were measured by using StudyDirector™ software (version 3.1.399.19). Dosing Holiday
Tumor growth inhibition percentage (TGI %) is an indicator for antitumor activity of a drug compound, and expressed as: TGI(%)=100×(1−T/C), where T and C are the mean tumor volume (or weight) of the treated and control groups, respectively, on a given day. Statistical analysis of the difference in mean tumor volume (MTV) among the groups was conducted using the data collected on the day when the MTV of the vehicle group reached the humane endpoints, so that TGI could be derived for all or most mice enrolled in the study.

[1] = In vivo pharmacokinetic studies in rats; design: species or system SD rats; conditions: rats; for AUC(0-t): read-out: AUClast; for Tmax: read-out: Tmax
Procedure: This example describes pharmacokinetic (PK) studies of ARI-164, ARI-165, ARI-186, ARI-224, and ARI-226 in mice and rats. In the present studies, the test compounds were given to groups of mice and/or rats (N=3 in each group), intravenously (IV) at 2 mg/kg or orally (PO) at 10, 30, or 40 mg/kg. ARI-186, ARI-224 and ARI-226 were given orally to rats QD for 5 days at 10 mg/kg to assess whether decreased susceptibility to CYP1A1/1A2 metabolism would lead to increased accumulation. IV doses were formulated in DMSO, while PO doses were formulated in a 50/50 mixture of PEG400 and Tween 80 (single dose mouse and rat studies for ARI-164, ARI-165, ARI-186, ARI-224, ARI-226) or PEG400/Kolliphor HS15/Oleic Acid 45/45/10 (ARI-164 repeat dose rat study). Blood samples were collected at pre-dose and over a period of 24 hours post-dose. Plasma concentrations of the test compounds were determined by HPLC.

[2] = SD, rat, plasma, iv, 2 mg/kg, single 2 mg/kg IV dose, Mean of 3 animals
[3] = SD, rat, plasma, iv, 2 mg/kg, single 2 mg/kg IV dose, individual animal
[4] = Sprague-Dawley (SD), rat, plasma, iv, 2 mg/kg, single 2 mg/kg IV dose, Mean of 3 animals
[5] = Sprague-Dawley (SD), rat, plasma, po, 10 mg/kg, single 10 mg/kg PO dose, Mean of 3 animals
[6] = Sprague-Dawley (SD), rat, plasma, po, 10 mg/kg, single 10 mg/kg PO dose, individual animal
[7] = single 2 mg/kg IV dose, individual animal, 2 mg/kg
[8] = single 10 mg/kg PO dose, individual animal, 10 mg/kg

Compound: CC[C@@H](O)c1csc(C(=O)c2c[nH]c3cc(F)ccc23)n1 [ARI-165, (R)-(6-Fluoro-1H-indol-3-yl)(4-(1-hydroxypropyl)thiazol-2-yl)methanone]
- TGI (EMT-6 cancer cells; study day 6): 0.0%
- TGI (EMT-6 cancer cells; study day 10): −7.9%
- TGI (EMT-6 cancer cells; study day 13): −8.6%
- TGI (EMT-6 cancer cells; study day 17): 14.5%
- TGI (EMT-6 cancer cells; study day 20): 23.1%
- TGI (EMT-6 cancer cells; study day 24): 25.8%
- TGI (EMT-6 cancer cells; study day 27): 12.5%
- TGI (EMT-6 cancer cells; study day 31): 9.1%
- AUC(0-inf) [1, 2]: 12800 ng·h/mL
- clearance [1, 2]: 5.38 mL/min/kg
- AUC(0-t) [1, 2]: 12600 ng·h/mL
- MRT inf [1, 3]: 0.81 h
- MRT last [1, 3]: 0.79 h
- Tmax [1, 3]: 0.083 h
- MRT inf [1, 4]: 1.11 h
- MRT last [1, 4]: 0.959 h
- half-life [1, 4]: 1.33 h
- Cmax ([1]; Sprague-Dawley (SD), rat, plasma, iv, 2 mg/kg, single 2 mg/kg IV dose, Mean of 3 animals, read-out: Cmax): 19200 ng/mL
- Tmax [1, 4]: 0.083 h
- Vd ([1]; Sprague-Dawley (SD), rat, plasma, iv, 2 mg/kg, single 2 mg/kg IV dose, Mean of 3 animals, read-out: Vss): 0.32 L/kg
- AUC(0-inf) [1, 5]: 4310 ng·h/mL
- MRT inf [1, 5]: 3.08 h
- MRT last [1, 5]: 2.82 h
- half-life [1, 5]: 1.09 h
- AUC(0-t) [1, 5]: 4160 ng·h/mL
- Cmax ([1]; Sprague-Dawley (SD), rat, plasma, po, 10 mg/kg, single 10 mg/kg PO dose, Mean of 3 animals, read-out: Cmax): 1120 ng/mL
- Tmax [1, 5]: 2 h
- AUC(0-inf) [1, 6]: 4680 ng·h/mL
- MRT inf [1, 6]: 3.41 h
- MRT last [1, 6]: 2.71 h
- AUC(0-t) [1, 6]: 4260 ng·h/mL
- Cmax ([1]; Sprague-Dawley (SD), rat, plasma, po, 10 mg/kg, single 10 mg/kg PO dose, individual animal, read-out: Cmax): 1250 ng/mL
- Tmax [1, 6]: 2 h
- bioavailability ([1]; Sprague-Dawley (SD), rat, plasma, 10 mg/kg PO vs 2 mg/kg IV, read-out: F (Bioavailability)): 6.73%
- AUCinf [1, 7]: 19500 ng·h/mL and 16300 ng·h/mL and 2690 ng·h/mL
- AUClast [1, 7]: 19500 ng·h/mL and 15700 ng·h/mL and 2620 ng·h/mL
- Cl [1, 7]: 1.72 mL/min/kg and 2.05 mL/min/kg and 12.4 mL/min/kg
- Cmax [1, 7]: 36500 ng/mL and 17100 ng/mL and 3880 ng/mL
- MRTinf [1, 7]: 1.61 h and 0.91 h
- MRTlast [1, 7]: 1.28 h and 0.8 h
- T1/2 [1, 7]: 1.07 h and 2.11 h and 0.83 h
- Vss [1, 7]: 0.0832 L/kg and 0.198 L/kg and 0.677 L/kg
- AUCinf [1, 8]: 4650 ng·h/mL and 3620 ng·h/mL
- AUClast [1, 8]: 4640 ng·h/mL and 3560 ng·h/mL
- Cmax [1, 8]: 1070 ng/mL and 1040 ng/mL
- MRTinf [1, 8]: 3.12 h and 2.71 h
- MRTlast [1, 8]: 3.12 h and 2.64 h
- T1/2 [1, 8]: 1.87 h and 0.541 h and 0.87 h
